Experiments:
[1] = Half life in po dosed rat; type: ADME, organism-based; conditions: in vivo
[2] = Cmax in Hartley guinea pig at 0.5 to 15 mg/kg, iv; type: ADME, organism-based, Cavia porcellus; parameters: dose 0.5-15 mg/kg, route intravenous; conditions: in vivo
[3] = Clearance in po dosed rat blood; type: ADME, organism-based
[4] = Oral bioavailability in rat; type: ADME, organism-based; conditions: in vivo
Rattus norvegicus = experiment: Volume of distribution at steady state in po dosed rat; type: ADME, organism-based; conditions: in vivo

SMILES | half-life [1] [h] | Cmax [2] [ng/mL] | CL/F [3] [mL/min/kg] | bioavailability [4] [%] | Vdss (Rattus norvegicus) [L/kg]
Cc1ncoc1-c1nnc(SCCCN2CC3CC3(c3ccc(C(F)(F)F)cc3F)C2)n1C (single isomer, unassigned; 74) | 3.7 | 8640 | 18 | 47 | 4.3
Cc1ncccc1-c1nnc(SCCCN2C[C@@H]3C[C@]3(c3ccc(C(F)(F)F)cc3)C2)n1C | 2.1 | 6240 | 18 | 50 | 2.5
Cc1nc(C)c(-c2nnc(SCCCN3C[C@@H]4C[C@]4(c4ccc(C(F)(F)F)cc4)C3)n2C)s1 | 2 | 8320 | 26 | 23 | 3.9
Cc1ncoc1-c1nnc(SCCCN2CC3CC3(c3ccc(C(F)(F)F)cc3)C2)n1C (racemic) | 3.2 | – | 14 | 85 | 3.5
Cc1ncoc1-c1nnc(SCCCN2CC3CC3(c3ccc(Cl)cc3)C2)n1C (single isomer, unassigned; 51) | 1.3 | – | 40 | 31 | 2.6
Cn1c(SCCCN2C[C@@H]3C[C@]3(c3ccc(C(F)(F)F)cc3)C2)nnc1-c1ccnnc1 | 2.1 | 9580 | 13 | 46 | 2.2

From ChEMBL document CHEMBL1153718, “1,2,4-Triazolyl azabicyclo[3.1.0]hexanes: a new series of potent and selective dopamine D(3) receptor antagonists” (J Med Chem, 2010)
